Where two headings read alike, the source gives them in different places.
Tests used:
[1] = system: wild type T. brucei; assay: 96-well manual assay on wild type T. brucei; format: cell-based; settings: Trypanosoma brucei, read-out: T. brucei EC50 (SD)
Experimental: (§1) In order to determine if analogues 35, 38, 44 and 46 are substrates for the P2 transporter they were assayed against a line of T. brucei lacking the gene which codes for the P2 transporter (Table 2).[33] If the analogues are transported they would be expected to show greater potency against wild type T. brucei than against the P2 knock out line. Compounds 8 and 19,[25] which contain the triazole and indolyl quinol pharmacophore respectively, but lack a P2 motif, served as negative controls.
(§2) The 96-well HTS assays against blood stream form T. brucei[38] and MRC5 cells were carried out as reported previously.[39] The manual assays performed on the AT1 double knock out T. brucei and wild type T. brucei were conducted as described by Jones et al.[39]

[2] = system: T. brucei AT1 KO; assay: 96-well manual assay on AT1 double knock out T. brucei (P2 transporter knock out); format: cell-based, Trypanosoma brucei; settings: for EC50: Trypanosoma brucei, read-out: T. brucei AT1 KO EC50 (SD); for Cell line selectivity: EC50 (AT1 KO)/EC50 (WT): manual assay
Experimental: as §1, with “If the analogues are transported they would be expected to show greater potency against wild type T. brucei than against the P2 knock out line.” left out
as §2

[3] = system: blood stream form T. brucei; assay: 96-well HTS assay against blood stream form T. brucei; format: cell-based, Trypanosoma brucei; settings: for EC50: Trypanosoma brucei
Experimental: as §2

[4] = system: MRC5 cells; assay: cells; format: cell-based, human; settings: Homo sapiens, MRC5, read-out: EC50 MRC5 (SD, n)
Experimental: as §2

[5] = system: blood stream form T. brucei; set-up: method as in PMID 21212280; settings: cited from earlier work; for EC50: Table 1, data taken from Konig et al.
[6] = system: MRC5 cells; set-up: method as in PMID 21212280; settings: Table 1; data taken from Konig et al.; cited from earlier work
[7] = in vitro; format: cell-based, human; settings: human
Experimental: as §2

[8] = Table 2, 96-well manual assay, wild type, weighted mean of three independent experiments
[9] = Table 1, arithmetic mean of independent determinations, read-out: EC50 T. brucei (SD, n)
[10] = Table 2, 96-well HTS assay, blood stream form T. b. brucei, read-out: T. brucei EC50 (SD, n)

## N=C(N)c1ccc(/N=N/Nc2ccc(C(=N)N)cc2)cc1 [Berenil, reference compound]
[1]; [8]
  EC50: 31 nM
[2]
  EC50: 330 nM
  Cell line selectivity: EC50 (AT1 KO)/EC50 (WT): 11

## C#CC1(O)C=CC(=O)C=C1 [Compound 1, 4-Ethynyl-4-hydroxycyclohexa-2,5-dienone]
[3]; [9]
  EC50: 2000 nM
[4]
  EC50: 2100 nM

## O=C1C=CC(O)(C#Cc2ccc(CC(=O)Nc3ccccc3)cc2)C=C1 [Compound 3, 2-(4-((1-Hydroxy-4-oxocyclohexa-2,5-dien-1-yl)ethynyl)phenyl)-N-phenylacetamide]
[3]; [9]
  EC50: 2200 nM
[4]
  EC50: 670 nM

## O=C1C=CC(O)(c2nc3ccccc3s2)C(Cl)=C1 (centres unmarked) [Compound 6]
[3]
  activity against T. brucei in words: low nanomolar range
[3]; [9]
  EC50: 46 nM
[4]
  EC50: 55 nM

## Oc1ccc(-c2nc3ccccc3s2)cc1 [Compound 7]
[5]
  EC50: > 50000 nM
  activity against T. brucei in words: inactive
[6]
  EC50: > 50000 nM

## COc1ccc(-n2cc(C3(O)C=CC(=O)C=C3)nn2)cc1 [Compound 8]
[1]
  EC50: 95 nM
[2]
  EC50: 74 nM
  Cell line selectivity: EC50 (AT1 KO)/EC50 (WT): 0.78

## COc1ccc(Cn2cc(C3(O)C=CC(=O)C=C3)nn2)cc1 [Compound 9]
[3]; [9]
  EC50: 160 nM
[4]
  EC50: 450 nM

## O=C1C=CC(O)(c2cn(-c3ccc4ncsc4c3)nn2)C=C1 [Compound 10]
[3]
  activity against T. brucei in words: low nanomolar range
[3]; [9]
  EC50: 27 nM
[4]
  EC50: 69 nM

## CC(=O)OC[C@H]1O[C@@H](n2cc(C3(O)C=CC(=O)C=C3)nn2)[C@H](OC(C)=O)[C@@H](OC(C)=O)[C@H]1OC(C)=O [Compound 11]
[3]; [9]
  EC50: 10000 nM
[4]
  EC50: > 50000 nM

## O=C1C=CC(O)(c2cn(CCC(=O)Nc3ccccc3)nn2)C=C1 [Compound 12, 3-(4-(1-Hydroxy-4-oxocyclohexa-2,5-dien-1-yl)-1H-1,2,3-triazol-1-yl)-N-phenylpropanamide]
[3]; [9]
  EC50: 2700 nM
[4]
  EC50: 18000 nM

## O=C1C=CC(O)(c2cc3ccc(F)cc3n2S(=O)(=O)c2ccccc2)C=C1 [Compound 13]
[5]
  EC50: 100 nM

## O=C1C=CC(O)(c2cc3cnccc3n2S(=O)(=O)c2ccccc2)C=C1 [Compound 15]
[3]
  activity against T. brucei in words: low nanomolar range
[3]; [9]
  EC50: 22 nM
[4]
  EC50: 41 nM

## Cc1ccc(S(=O)(=O)n2c(C3(O)C=CC(=O)C=C3)cc3ccncc32)cc1 [Compound 16]
[3]
  activity against T. brucei in words: low nanomolar range
[3]; [9]
  EC50: 26 nM
[4]
  EC50: 44 nM

## CCOC(=O)Nc1ccc(S(=O)(=O)n2c(C3(O)C=CC(=O)C=C3)cc3ccccc32)cc1 [Compound 17]
[3]; [9]
  EC50: 50 nM
[4]
  EC50: 86 nM

## CC(=O)NCCc1ccc(S(=O)(=O)n2c(C3(O)C=CC(=O)C=C3)cc3ccccc32)cc1 [Compound 18]
[3]
  activity against T. brucei in words: low nanomolar range
[3]; [9]
  EC50: 12 nM
[4]
  EC50: 36 nM

## COC(=O)CCc1ccc(S(=O)(=O)n2c(C3(O)C=CC(=O)C=C3)cc3ccccc32)cc1 [Compound 19, Methyl 3-(4-((2-(1-hydroxy-4-oxocyclohexa-2,5-dien-1-yl)-1H-indol-1-yl)sulfonyl)phenyl) propanoate]
[3]; [9]
  EC50: 160 nM
[3]; [10]
  EC50: 160 nM
[7]
  EC50: 280 nM
[4]
  EC50: 280 nM
[1]; [8]
  EC50: 60 nM
[2]
  EC50: 80 nM
  Cell line selectivity: EC50 (AT1 KO)/EC50 (WT): 1.3

## O=C1C=CC(O)(c2cc3ccccc3n2S(=O)(=O)c2ccc(CCCO)cc2)C=C1 [Compound 20]
[3]; [9]
  EC50: 24 nM
[4]
  EC50: 51 nM

## O=C1C=CC(O)(c2cc3ccccc3n2S(=O)(=O)c2ccc(CCC(=O)N3CCOCC3)cc2)C=C1 [Compound 21]
[3]; [9]
  EC50: 36 nM
[4]
  EC50: 67 nM

## CN1CCN(C(=O)CCc2ccc(S(=O)(=O)n3c(C4(O)C=CC(=O)C=C4)cc4ccccc43)cc2)CC1 [Compound 22]
[3]; [9]
  EC50: 18 nM
[4]
  EC50: 52 nM

## O=C1C=CC(O)(c2cc3ccccc3n2S(=O)(=O)c2ccc(CCCN3CCOCC3)cc2)C=C1 [Compound 23]
[3]; [9]
  EC50: 26 nM
[4]
  EC50: 79 nM

## CN1CCN(CCCc2ccc(S(=O)(=O)n3c(C4(O)C=CC(=O)C=C4)cc4ccccc43)cc2)CC1 [Compound 24]
[3]; [9]
  EC50: 16 nM
[4]
  EC50: 50 nM

## CS(=O)(=O)c1ccc(S(=O)(=O)n2c(C3(O)C=CC(=O)C=C3)cc3ccccc32)cc1 [Compound 25]
[3]; [9]
  EC50: 24 nM
[4]
  EC50: 39 nM

## N=C(N)c1ccc(-n2cc(C3(O)C=CC(=O)C=C3)nn2)cc1 [Compound 35, 4-(4-(1-Hydroxy-4-oxocyclohexa-2,5-dienyl)-1H-1,2,3-triazol-1-yl)benzimidamide]
[3]; [10]
  EC50: 11000 nM
[7]
  EC50: > 50000 nM
[1]; [8]
  EC50: 5000 nM
[2]
  EC50: 6000 nM
  Cell line selectivity: EC50 (AT1 KO)/EC50 (WT): 1.2

## Nc1nc(N)nc(-n2cc(C3(O)C=CC(=O)C=C3)nn2)n1 [Compound 38, 4-(1-(4,6-Diamino-1,3,5-triazin-2-yl)-1H-1,2,3-triazol-4-yl)-4-hydroxycyclohexa-2,5-dienone]
[3]; [10]
  EC50: 6200 nM
[7]
  EC50: > 50000 nM
[1]; [8]
  EC50: 3800 nM
[2]
  EC50: 3800 nM
  Cell line selectivity: EC50 (AT1 KO)/EC50 (WT): 1.0

## O=C1C=CC(O)(c2cc3ccccc3n2S(=O)(=O)c2ccc(CCC(=O)O)cc2)C=C1 [Compound 42, 3-(4-((2-(1-Hydroxy-4-oxocyclohexa-2,5-dien-1-yl)-1H-indol-1-yl)sulfonyl)phenyl)propanoic acid]
[3]; [10]
  EC50: 740 nM
[7]
  EC50: 3300 nM

## Nc1nc(N)nc(NCCCOC(=O)CCc2ccc(S(=O)(=O)n3c(C4(O)C=CC(=O)C=C4)cc4ccccc43)cc2)n1 [Compound 44, 3-((4,6-Diamino-1,3,5-triazin-2-yl)amino)propyl 3-(4-((2-(1-hydroxy-4-oxocyclohexa-2,5-dien-1-yl)-1H-indol-1-yl)sulfonyl)phenyl)propanoate]
[3]; [10]
  EC50: 350 nM
[7]
  EC50: 950 nM
[1]; [8]
  EC50: 250 nM
[2]
  EC50: 260 nM
  Cell line selectivity: EC50 (AT1 KO)/EC50 (WT): 1.0

## Nc1nc(N)nc(NCCCNC(=O)CCc2ccc(S(=O)(=O)n3c(C4(O)C=CC(=O)C=C4)cc4ccccc43)cc2)n1 [Compound 46, N-(3-((4,6-Diamino-1,3,5-triazin-2-yl)amino)propyl)-3-(4-((2-(1-hydroxy-4-oxocyclohexa-2,5-dien-1-yl)-1H-indol-1-yl)sulfonyl)phenyl)propanamide]
[3]; [10]
  EC50: 3200 nM
[7]
  EC50: 18000 nM
[1]; [8]
  EC50: 1700 nM
[2]
  EC50: 1800 nM
  Cell line selectivity: EC50 (AT1 KO)/EC50 (WT): 1.1

## Nc1nc(N)nc(Nc2ccc([As]3SCC(CO)S3)cc2)n1 (centres unmarked) [melarsoprol, reference compound]
[3]; read-out: EC50 against T. brucei
  EC50: 33 nM

## N=C(N)c1ccc(OCCCCCOc2ccc(C(=N)N)cc2)cc1 [pentamidine, reference compound]
[3]; reference drugs assayed under identical conditions, read-out: EC50 against T. brucei
  EC50: 8 nM
